Results published in ChEMBL document CHEMBL6127119 (J Med Chem, 2024).
In brackets after ≈: the same amount, converted by molar mass.

What was measured:
Assay type in all cases: functional
Conditions in all cases: time 16-24 hrs
Acinetobacter baumannii = test: Antibacterial activity against Carbapenem-resistant Acinetobacter baumannii clinical isolate incubated for 16 to 24 hrs by CLSI based broth microdilution method
Klebsiella pneumoniae = test: Antibacterial activity against Klebsiella pneumoniae clinical isolate incubated for 16 to 24 hrs by CLSI based broth microdilution method
Staphylococcus aureus [1] = test: Antibacterial activity against methicillin-susceptible Staphylococcus aureus incubated for 16 to 24 hrs by CLSI based broth microdilution method
Staphylococcus aureus [2] = test: Antibacterial activity against vancomycin-intermediate Staphylococcus aureus incubated for 16 to 24 hrs by CLSI based broth microdilution method
Escherichia coli = test: Antibacterial activity against Escherichia coli AB1157 incubated for 16 to 24 hrs by CLSI based broth microdilution method
Enterococcus faecium [3] = test: Antibacterial activity against vancomycin-resistant Enterococcus faecium harboring VanA phenotype incubated for 16 to 24 hrs by CLSI based broth microdilution method
Enterococcus faecium [4] = test: Antibacterial activity against vancomycin-resistant Enterococcus faecium harboring VanB phenotype incubated for 16 to 24 hrs by CLSI based broth microdilution method
Pseudomonas aeruginosa = test: Antibacterial activity against Pseudomonas aeruginosa PAO1 incubated for 16 to 24 hrs by CLSI based broth microdilution method
Enterococcus faecium [5] = test: Antibacterial activity against vancomycin-resistant Enterococcus faecium harboring VanM phenotype incubated for 16 to 24 hrs by CLSI based broth microdilution method

Row | SMILES | MIC (Acinetobacter baumannii) [µg/mL] | MIC (Klebsiella pneumoniae) [µg/mL] | MIC (Staphylococcus aureus [1]) [µg/mL] | MIC (Staphylococcus aureus [2]) [µg/mL] | MIC (Escherichia coli) [µg/mL] | MIC (Enterococcus faecium [3]) [µg/mL] | MIC (Enterococcus faecium [4]) [µg/mL] | MIC (Pseudomonas aeruginosa) [µg/mL] | MIC (Enterococcus faecium [5]) [µg/mL]
1 | CN[C@H](CC(C)C)C(=O)N[C@H]1C(=O)N[C@@H](CC(N)=O)C(=O)N[C@H]2C(=O)N[C@H]3C(=O)N[C@H](C(=O)N[C@H](C(=O)O)c4cc(O)cc(O)c4-c4cc3ccc4O)[C@H](O)c3ccc(c(Cl)c3)Oc3cc2cc(c3O[C@@H]2O[C@H](CO)[C@@H](O)[C@H](O)[C@H]2O[C@H]2C[C@](C)(NCc3ccc(-c4ccc(CN)cc4)cc3)[C@H](O)[C@H](C)O2)Oc2ccc(cc2Cl)[C@H]1O | 128 (≈ 77.8 µM) | > 128 | 0.25 (≈ 0.152 µM) | 2 (≈ 1.22 µM) | 64 (≈ 38.9 µM) | 16 (≈ 9.73 µM) | 16 (≈ 9.73 µM) |  | 
2 | CN[C@H](CC(C)C)C(=O)N[C@H]1C(=O)N[C@@H](CC(N)=O)C(=O)N[C@H]2C(=O)N[C@H]3C(=O)N[C@H](C(=O)N[C@H](C(=O)O)c4cc(O)cc(O)c4-c4cc3ccc4O)[C@H](O)c3ccc(c(Cl)c3)Oc3cc2cc(c3O[C@@H]2O[C@H](CO)[C@@H](O)[C@H](O)[C@H]2O[C@H]2C[C@](C)(NCc3ccc(-c4ccc(CCN)cc4)cc3)[C@H](O)[C@H](C)O2)Oc2ccc(cc2Cl)[C@H]1O | 64 (≈ 38.6 µM) | > 128 | 0.25 (≈ 0.151 µM) | 2 (≈ 1.21 µM) | 64 (≈ 38.6 µM) | 16 (≈ 9.65 µM) | 8 (≈ 4.82 µM) |  | 
3 | CC(C)C[C@@H](N)C(=O)N[C@H]1C(=O)N[C@@H](CC(N)=O)C(=O)N[C@H]2C(=O)N[C@H]3C(=O)N[C@H](C(=O)N[C@H](C(=O)NCCNC(=N)N)c4cc(O)cc(O)c4-c4cc3ccc4O)[C@H](O)c3ccc(c(Cl)c3)Oc3cc2cc(c3O[C@@H]2O[C@H](CO)[C@@H](O)[C@H](O)[C@H]2O[C@H]2C[C@](C)(N)[C@H](O)[C@H](C)O2)Oc2ccc(cc2Cl)[C@H]1O | 128 (≈ 84.2 µM) | > 128 | 0.5 (≈ 0.329 µM) | 2 (≈ 1.32 µM) | 32 (≈ 21.1 µM) | 32 (≈ 21.1 µM) | 128 (≈ 84.2 µM) | > 128 | 32 (≈ 21.1 µM)
4 | CN[C@H](CC(C)C)C(=O)N[C@H]1C(=O)N[C@@H](CC(N)=O)C(=O)N[C@H]2C(=O)N[C@H]3C(=O)N[C@H](C(=O)N[C@H](C(=O)O)c4cc(O)cc(O)c4-c4cc3ccc4O)[C@H](O)c3ccc(c(Cl)c3)Oc3cc2cc(c3O[C@@H]2O[C@H](CO)[C@@H](O)[C@H](O)[C@H]2O[C@H]2C[C@](C)(NCc3ccc(-c4ccc(CNC(=N)N)cc4)cc3)[C@H](O)[C@H](C)O2)Oc2ccc(cc2Cl)[C@H]1O | 64 (≈ 37.9 µM) | > 128 | 0.125 (≈ 0.0741 µM) | 2 (≈ 1.19 µM) | 64 (≈ 37.9 µM) | 4 (≈ 2.37 µM) | 4 (≈ 2.37 µM) |  | 
5 | CN[C@H](CC(C)C)C(=O)N[C@H]1C(=O)N[C@@H](CC(N)=O)C(=O)N[C@H]2C(=O)N[C@H]3C(=O)N[C@H](C(=O)N[C@H](C(=O)NCCc4ccc(-c5ccc(CN)cc5)cc4)c4cc(O)cc(O)c4-c4cc3ccc4O)[C@H](O)c3ccc(c(Cl)c3)Oc3cc2cc(c3O[C@@H]2O[C@H](CO)[C@@H](O)[C@H](O)[C@H]2O[C@H]2C[C@](C)(N)[C@H](O)[C@H](C)O2)Oc2ccc(cc2Cl)[C@H]1O | 32 (≈ 19.3 µM) | > 128 | 0.25 (≈ 0.151 µM) | 1 (≈ 0.603 µM) | 16 (≈ 9.65 µM) | 8 (≈ 4.83 µM) | 8 (≈ 4.83 µM) |  | 
6 | CC(C)C[C@@H](N)C(=O)N[C@H]1C(=O)N[C@@H](CC(N)=O)C(=O)N[C@H]2C(=O)N[C@H]3C(=O)N[C@H](C(=O)N[C@H](C(=O)NCc4ccc(CN)cc4)c4cc(O)cc(O)c4-c4cc3ccc4O)[C@H](O)c3ccc(c(Cl)c3)Oc3cc2cc(c3O[C@@H]2O[C@H](CO)[C@@H](O)[C@H](O)[C@H]2O[C@H]2C[C@](C)(N)[C@H](O)[C@H](C)O2)Oc2ccc(cc2Cl)[C@H]1O | 64 (≈ 41.2 µM) |  | 1 (≈ 0.644 µM) | 1 (≈ 0.644 µM) | 16 (≈ 10.3 µM) | 128 (≈ 82.4 µM) | 64 (≈ 41.2 µM) |  | 64 (≈ 41.2 µM)
7 | CC(C)C[C@H](C(=O)N[C@H]1C(=O)N[C@@H](CC(N)=O)C(=O)N[C@H]2C(=O)N[C@H]3C(=O)N[C@H](C(=O)N[C@H](C(=O)O)c4cc(O)cc(O)c4-c4cc3ccc4O)[C@H](O)c3ccc(c(Cl)c3)Oc3cc2cc(c3O[C@@H]2O[C@H](CO)[C@@H](O)[C@H](O)[C@H]2O[C@H]2C[C@](C)(N)[C@H](O)[C@H](C)O2)Oc2ccc(cc2Cl)[C@H]1O)N(C)Cc1ccc(-c2ccc(CNC(=N)N)cc2)cc1 | > 128 | > 128 | 1 (≈ 0.593 µM) | 4 (≈ 2.37 µM) | > 128 | 32 (≈ 19 µM) | 32 (≈ 19 µM) |  | 32 (≈ 19 µM)
8 | CN[C@H](CC(C)C)C(=O)N[C@H]1C(=O)N[C@@H](CC(N)=O)C(=O)N[C@H]2C(=O)N[C@H]3C(=O)N[C@H](C(=O)N[C@H](C(=O)O)c4cc(O)cc(O)c4-c4cc3ccc4O)[C@H](O)c3ccc(c(Cl)c3)Oc3cc2cc(c3O[C@@H]2O[C@H](CO)[C@@H](O)[C@H](O)[C@H]2O[C@H]2C[C@](C)(NCc3ccc(-c4ccc(CCNC(=N)N)cc4)cc3)[C@H](O)[C@H](C)O2)Oc2ccc(cc2Cl)[C@H]1O | 64 (≈ 37.6 µM) | > 128 | 0.125 (≈ 0.0735 µM) | 2 (≈ 1.18 µM) | 64 (≈ 37.6 µM) | 8 (≈ 4.7 µM) | 4 (≈ 2.35 µM) |  | 
9 | CC(C)C[C@H](C(=O)N[C@H]1C(=O)N[C@@H](CC(N)=O)C(=O)N[C@H]2C(=O)N[C@H]3C(=O)N[C@H](C(=O)N[C@H](C(=O)O)c4cc(O)cc(O)c4-c4cc3ccc4O)[C@H](O)c3ccc(c(Cl)c3)Oc3cc2cc(c3O[C@@H]2O[C@H](CO)[C@@H](O)[C@H](O)[C@H]2O[C@H]2C[C@](C)(N)[C@H](O)[C@H](C)O2)Oc2ccc(cc2Cl)[C@H]1O)N(C)Cc1ccc(-c2ccc(CCNC(=N)N)cc2)cc1 | > 128 | > 128 | 2 (≈ 1.18 µM) | 4 (≈ 2.35 µM) | > 128 | 32 (≈ 18.8 µM) | 32 (≈ 18.8 µM) |  | 32 (≈ 18.8 µM)
10 | CN[C@H](CC(C)C)C(=O)N[C@H]1C(=O)N[C@@H](CC(N)=O)C(=O)N[C@H]2C(=O)N[C@H]3C(=O)N[C@H](C(=O)N[C@H](C(=O)NCc4ccc(-c5ccc(CN)cc5)cc4)c4cc(O)cc(O)c4-c4cc3ccc4O)[C@H](O)c3ccc(c(Cl)c3)Oc3cc2cc(c3O[C@@H]2O[C@H](CO)[C@@H](O)[C@H](O)[C@H]2O[C@H]2C[C@](C)(N)[C@H](O)[C@H](C)O2)Oc2ccc(cc2Cl)[C@H]1O | 32 (≈ 19.5 µM) | > 128 | ≤ 0.063 | 1 (≈ 0.608 µM) | 16 (≈ 9.74 µM) | 8 (≈ 4.87 µM) | 8 (≈ 4.87 µM) |  | 
11 | CN[C@H](CC(C)C)C(=O)N[C@H]1C(=O)N[C@@H](CC(N)=O)C(=O)N[C@H]2C(=O)N[C@H]3C(=O)N[C@H](C(=O)N[C@H](C(=O)NCc4ccc(-c5ccc(CCN)cc5)cc4)c4cc(O)cc(O)c4-c4cc3ccc4O)[C@H](O)c3ccc(c(Cl)c3)Oc3cc2cc(c3O[C@@H]2O[C@H](CO)[C@@H](O)[C@H](O)[C@H]2O[C@H]2C[C@](C)(N)[C@H](O)[C@H](C)O2)Oc2ccc(cc2Cl)[C@H]1O | 32 (≈ 19.3 µM) | > 128 | 1 (≈ 0.603 µM) | 1 (≈ 0.603 µM) | 16 (≈ 9.65 µM) | 8 (≈ 4.83 µM) | 4 (≈ 2.41 µM) |  | 8 (≈ 4.83 µM)
12 | CC(C)C[C@@H](N)C(=O)N[C@H]1C(=O)N[C@@H](CC(N)=O)C(=O)N[C@H]2C(=O)N[C@H]3C(=O)N[C@H](C(=O)N[C@H](C(=O)NCc4ccc(CNC(=N)N)cc4)c4cc(O)cc(O)c4-c4cc3ccc4O)[C@H](O)c3ccc(c(Cl)c3)Oc3cc2cc(c3O[C@@H]2O[C@H](CO)[C@@H](O)[C@H](O)[C@H]2O[C@H]2C[C@](C)(N)[C@H](O)[C@H](C)O2)Oc2ccc(cc2Cl)[C@H]1O | 32 (≈ 20.1 µM) |  | 0.25 (≈ 0.157 µM) | 1 (≈ 0.627 µM) | 8 (≈ 5.01 µM) | 16 (≈ 10 µM) | 8 (≈ 5.01 µM) |  | 16 (≈ 10 µM)
13 | CC(=O)NC[C@H]1CN(c2ccc(N3CCOCC3)c(F)c2)C(=O)O1 [LINEZOLID] | 128 (≈ 379 µM) | > 128 |  |  | 128 (≈ 379 µM) | 1 (≈ 2.96 µM) | 2 (≈ 5.93 µM) | > 128 | 2 (≈ 5.93 µM)
14 | CC(C)C[C@H](C(=O)N[C@H]1C(=O)N[C@@H](CC(N)=O)C(=O)N[C@H]2C(=O)N[C@H]3C(=O)N[C@H](C(=O)N[C@H](C(=O)O)c4cc(O)cc(O)c4-c4cc3ccc4O)[C@H](O)c3ccc(c(Cl)c3)Oc3cc2cc(c3O[C@@H]2O[C@H](CO)[C@@H](O)[C@H](O)[C@H]2O[C@H]2C[C@](C)(N)[C@H](O)[C@H](C)O2)Oc2ccc(cc2Cl)[C@H]1O)N(C)Cc1ccc(-c2ccc(CN)cc2)cc1 | > 128 | > 128 | 1 (≈ 0.608 µM) | 8 (≈ 4.86 µM) | > 128 | 64 (≈ 38.9 µM) | 64 (≈ 38.9 µM) |  | 64 (≈ 38.9 µM)
15 | CC(C)C[C@H](C(=O)N[C@H]1C(=O)N[C@@H](CC(N)=O)C(=O)N[C@H]2C(=O)N[C@H]3C(=O)N[C@H](C(=O)N[C@H](C(=O)O)c4cc(O)cc(O)c4-c4cc3ccc4O)[C@H](O)c3ccc(c(Cl)c3)Oc3cc2cc(c3O[C@@H]2O[C@H](CO)[C@@H](O)[C@H](O)[C@H]2O[C@H]2C[C@](C)(N)[C@H](O)[C@H](C)O2)Oc2ccc(cc2Cl)[C@H]1O)N(C)Cc1ccc(-c2ccc(CCN)cc2)cc1 | > 128 | > 128 | 1 (≈ 0.603 µM) | 8 (≈ 4.82 µM) | > 128 | 64 (≈ 38.6 µM) | 64 (≈ 38.6 µM) |  | 64 (≈ 38.6 µM)
